This assay deals with MPP1 (Manganese Porphyrin-binding Protein 1). Description: UV-vis absorption titration. The arrangement: species or system synthetic construct.

For orientation: Kd means the free concentration of one partner at which half of the binding sites on the other are occupied at equilibrium, for simple one-to-one binding.

In turn, `C1=CC2=[N+]3C1=Cc1ccc4[n]1[Mn-]31[n]3c(ccc3=C2c2ccccc2)=CC2=[N+]1C(=C4c1ccccc1)C=C2` (stereo not shown) [Mn(III)DPP] displayed a Kd of 122 ± 19 nM.

The record behind these values is article PMC8006777 (Journal of the American Chemical Society, 2020).
